Data: PubChem BioAssay (NCI)
Where “and” joins values, the source holds several entries; their conditions need not be identical. Equal values may be shown once.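 Compound exposure: 48 hours, 5 concentrations, 96-well plates. GI50: concentration for 50% inhibition of growth. TGI: total growth inhibition.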

Experiments:
Experiment in all cases: inhibition of tumour cell growth, NCI panel, 48 h
CAKI-1 renal = test system: CAKI-1 renal
HCC-2998 colon = test system: HCC-2998 colon
SNB-75 CNS = test system: SNB-75 CNS
SN12C renal = test system: SN12C renal
HOP-92 NSCLC = test system: HOP-92 NSCLC
MALME-3M melanoma = test system: MALME-3M melanoma
A498 renal = test system: A498 renal
U251 CNS = test system: U251 CNS
EKVX NSCLC = test system: EKVX NSCLC
SNB-19 CNS = test system: SNB-19 CNS

SMILES	GI50 (CAKI-1 renal)	TGI (CAKI-1 renal)	GI50 (HCC-2998 colon)	TGI (HCC-2998 colon)	GI50 (SNB-75 CNS)	TGI (SNB-75 CNS)	GI50 (SN12C renal)	TGI (SN12C renal)	GI50 (HOP-92 NSCLC)	TGI (HOP-92 NSCLC)	TGI (MALME-3M melanoma)	TGI (A498 renal)	GI50 (U251 CNS)	TGI (U251 CNS)	TGI (EKVX NSCLC)	GI50 (SNB-19 CNS)	TGI (SNB-19 CNS)	GI50 (MALME-3M melanoma)	GI50 (A498 renal)	GI50 (EKVX NSCLC)
C[C@@]12CCCc3coc(c31)C(=O)c1cc3c(cc12)C(=O)C=CC3=O	> 1 µM	> 1 µM and 28.5 µM	> 1 µM	> 1 µM and 69.7 µM	> 1000 nM	> 1 µM and 38.2 µM	> 1000 nM	> 1 µM and 38.6 µM	> 1000 nM	> 1 µM and 14.6 µM	> 1 µM	> 100 µM	> 1 µM	> 100 µM	34.1 µM	> 1 µM	> 100 µM	–	–	–
CC(C)OC(=O)NNc1cc(Cl)ccc1Cl	–	> 100 µM	–	> 100 µM	–	> 100 µM	–	> 100 µM	–	> 100 µM	> 100 µM	96.6 µM	–	> 100 µM	> 100 µM	–	> 100 µM	–	–	–
COc1ccc2[nH]c3c4c(ccc3c2c1)C(=O)C=CC4=O	–	14.4 µM	–	45.9 µM	–	41.3 µM	–	24.4 µM	–	7.64 µM	17.4 µM	48.4 µM	–	36.5 µM	29.9 µM	–	> 79.1 µM	–	–	–
COc1ccc(Nc2c3ccccc3nc3occ(Cl)c23)cc1	< 0.01 µM	16.3 µM	< 0.01 µM	0.0909 µM	90.8 nM	> 100 µM	85.8 nM	19 µM	16.5 nM	7.17 µM	14.7 µM	0.121 µM	–	–	6.89 µM	0.48 µM	> 38.2 µM	12.4 nM	< 0.01 µM	1.76 µM
Cc1cn2c(/C=C3\C(=O)N(C)c4ccc(O)cc43)c(C)nc2s1	5.13 µM	45.8 µM	7.37 µM	36 µM	2860 nM	10.2 µM	18300 nM	> 100 µM	31700 nM	> 100 µM	> 100 µM	60.4 µM	5.64 µM	> 100 µM	> 100 µM	3.64 µM	39.1 µM	8580 nM	21.6 µM	14.8 µM
C=CCNC(=O)N(CCC)CCCCC(NC(C)=O)C(=O)NCc1ccccc1 (configuration not stated)	–	> 100 µM	–	> 100 µM	–	> 100 µM	–	> 100 µM	–	> 100 µM	> 100 µM	> 100 µM	–	> 100 µM	> 100 µM	–	> 100 µM	–	–	–
COC(=O)CCC(=O)CC1CC(=O)C2CCCN12 (configuration not stated)	–	> 100 µM	–	> 100 µM	–	> 100 µM	–	> 100 µM	–	> 100 µM	> 100 µM	> 100 µM	–	> 100 µM	> 100 µM	–	> 100 µM	–	–	–
COc1ccc2ncn(-c3cc(O[C@H](C)c4ccccc4Cl)c(C(N)=O)s3)c2c1	0.189 µM	> 25 µM	0.0348 µM	5.51 µM	148 nM	> 19.7 µM	954 nM	> 25 µM	404 nM	8.01 µM	> 25 µM	0.57 µM	0.0234 µM	> 25 µM	> 25 µM	0.0814 µM	> 25 µM	8210 nM	0.0441 µM	0.183 µM
C[C@]12CC[C@@H]3c4ccc(O)cc4CC[C@H]3[C@@H]1CC[C@@H]2NS(=O)(=O)c1cccc(F)c1	3.4 µM	13.5 µM	5.27 µM	16.9 µM	2930 nM	15 µM	2350 nM	6.39 µM	2430 nM	8.64 µM	7.76 µM	6.68 µM	3.23 µM	12.1 µM	–	5.5 µM	18.3 µM	2520 nM	2.07 µM	–
N=C(N)SCc1cccc(-c2nc3ccccc3c(=O)o2)c1	–	> 100 µM	–	> 100 µM	–	> 100 µM	–	> 100 µM	–	> 100 µM	> 100 µM	> 100 µM	–	> 100 µM	> 100 µM	–	> 100 µM	–	–	–
CC1CCC(=O)C(C(=O)CC2CC(=O)NC(=O)C2)C1 (configuration not stated)	–	> 100 µM	–	> 100 µM	–	> 100 µM	–	> 100 µM	–	> 100 µM	> 100 µM	> 100 µM	–	> 100 µM	> 100 µM	–	> 100 µM	–	–	–
CC(C)CCCC(C)[C@H]1CCC2[C@H]3C(CC[C@@]21C)[C@@]1(C)CCC=C[C@]12C[C@@H]2[C@@H]3O (some centres not stated)	–	> 100 µM	–	> 100 µM	–	> 100 µM	–	> 100 µM	–	> 100 µM	> 100 µM	> 100 µM	–	> 100 µM	> 100 µM	–	> 100 µM	–	–	–
C=C1C(=O)O[C@H]2[C@H]1CC/C(COC(=O)c1ccc(Cl)nc1)=C\CC[C@@]1(C)O[C@@H]21	–	–	4.68 µM	18 µM	12400 nM	31.6 µM	2150 nM	5.42 µM	2180 nM	4.84 µM	4.19 µM	32.7 µM	4.85 µM	15.9 µM	13.6 µM	7.55 µM	20.1 µM	2120 nM	17.8 µM	3.41 µM
C1C[OH+]CCNCC[OH+]CC[OH+]CCN1.[Cl-].[Pt+4]	> 100 µM	> 100 µM	> 100 µM	> 100 µM	> 100000 nM	> 100 µM	> 100000 nM	> 100 µM	> 100000 nM	> 100 µM	> 100 µM	> 100 µM	> 100 µM	> 100 µM	–	> 100 µM	> 100 µM	> 100000 nM	> 100 µM	–
O=C1c2ccc3c4ccccc4n(Cc4ccccc4)c3c2C(=O)N1c1ccccc1	–	25.1 µM	–	37.2 µM	–	27.7 µM	–	30.1 µM	–	26.9 µM	29.9 µM	45.9 µM	–	29.3 µM	39.4 µM	–	42.3 µM	–	–	–
CCOC(=O)CNC(=O)c1ccccc1Nc1ccnc(C(F)(F)F)c1	20.9 µM	> 62.5 µM	71.3 µM	> 100 µM	> 100000 nM	> 100 µM	36600 nM	> 79.4 µM	57.2 nM	7.62 µM	> 88.8 µM	> 100 µM	34.3 µM	> 62.1 µM	> 96 µM	34.2 µM	> 100 µM	34100 nM	64 µM	30.6 µM
COc1cc2ncn(-c3cc(OCCc4ccccc4)c(C(N)=O)s3)c2cc1OC	> 25 µM	> 25 µM	> 25 µM	> 25 µM	> 25000 nM	> 25 µM	24900 nM	> 25 µM	19600 nM	> 25 µM	> 25 µM	> 22.3 µM	> 25 µM	> 25 µM	> 25 µM	> 25 µM	> 25 µM	> 25000 nM	2.43 µM	> 25 µM
C=CCSS/C=C/CS(=O)CC=C (configuration not stated)	–	> 62.7 µM	–	> 100 µM	–	> 100 µM	–	> 65.9 µM	–	> 100 µM	> 100 µM	> 100 µM	–	> 100 µM	> 100 µM	–	> 100 µM	–	–	–
Cc1cc(N/N=C/c2nc(-c3ccc(Br)cc3)oc2C)c2cc(Br)ccc2n1	8.15 µM	20.6 µM	7.43 µM	20.8 µM	2170 nM	6.66 µM	2100 nM	5.36 µM	2500 nM	14.4 µM	4.48 µM	53.2 µM	1.94 µM	3.75 µM	38.5 µM	3.87 µM	23.4 µM	2100 nM	16.5 µM	19.3 µM
Nc1nc(SN=Nc2ccc(S(N)(=O)=O)cc2)c2[nH]cnc2n1	0.332 µM	6.57 µM	0.508 µM	> 100 µM	354 nM	> 21.7 µM	698 nM	> 100 µM	429 nM	22.4 µM	> 60.6 µM	7.47 µM	2.66 µM	> 100 µM	> 100 µM	> 78.6 µM	> 100 µM	1870 nM	1.35 µM	0.714 µM
COc1cccc(/C(COc2ccc3c(c2)oc(=O)c2cc(OC)ccc23)=N/O)c1	6.7 µM	> 100 µM	7.78 µM	> 100 µM	2360 nM	9.61 µM	14200 nM	> 100 µM	37000 nM	> 100 µM	> 100 µM	25.8 µM	4.35 µM	> 100 µM	> 100 µM	3.66 µM	> 100 µM	> 100000 nM	3.02 µM	16.1 µM
[Au+].[Au+].[Au+].[c-]1nccn1Cc1ccccc1.[c-]1nccn1Cc1ccccc1.[c-]1nccn1Cc1ccccc1	11.2 µM	25.9 µM	14.4 µM	37.9 µM	6080 nM	18.9 µM	8420 nM	55.3 µM	2340 nM	4.25 µM	7.08 µM	33.6 µM	9.03 µM	–	38.8 µM	23.1 µM	59 µM	3350 nM	16.1 µM	11.6 µM
CC1(C)O/C(=C\c2ccccc2)C(=O)/C(=C/c2ccccc2)O1	–	> 100 µM	–	–	–	> 100 µM	–	> 100 µM	–	> 100 µM	> 100 µM	> 100 µM	–	> 100 µM	> 100 µM	–	> 100 µM	–	–	–
CCC(C)(C)c1ccc(OCCCCCCN2CCNCC2)cc1	2.26 µM	7.09 µM	2 µM	3.76 µM	1460 nM	3.51 µM	3480 nM	13.5 µM	1210 nM	6.82 µM	3.6 µM	24.5 µM	1.68 µM	3.45 µM	27.1 µM	–	–	1940 nM	6.82 µM	9.73 µM
COc1ccc2c(O)cc3c(c2c1)[C@H](CCl)CN3C(=O)c1cc2cc(NC(=O)CCN3CCOCC3)ccc2[se]1	< 0.001 µM	< 0.001 µM	< 0.001 µM	0.00715 µM	< 1 nM	0.00156 µM	< 1 nM	0.0334 µM	< 1 nM	0.00216 µM	< 0.001 µM	< 0.001 µM	< 0.001 µM	0.385 µM	0.00471 µM	< 0.001 µM	0.233 µM	< 1 nM	< 0.001 µM	< 0.001 µM
N.N.N.N.[Cl-].[Co+3].[N-]=[N+]=[N-].[N-]=[N+]=[N-]	–	–	> 100 µM	> 100 µM	> 100000 nM	> 100 µM	> 100000 nM	> 100 µM	> 100000 nM	> 100 µM	> 100 µM	> 100 µM	> 100 µM	> 100 µM	> 100 µM	> 100 µM	> 100 µM	57900 nM	> 100 µM	> 100 µM
CCCCOC(=O)NC(=O)c1cn(CCCOC(=O)NCCCCCCNC(=O)OCCCn2cc(C(=O)NC(=O)OCCCC)c(=O)[nH]c2=O)c(=O)[nH]c1=O	–	–	–	> 100 µM	–	> 100 µM	–	> 100 µM	–	> 100 µM	> 100 µM	> 100 µM	–	> 100 µM	> 100 µM	–	> 100 µM	–	–	–
Cc1cc[c-]cc1.Fc1c[c-]c(-c2ccccn2)c(F)c1.[Pt+2].c1ccc(P(C[PH+](c2ccccc2)c2ccccc2)c2ccccc2)cc1	2.43 µM	9.03 µM	2.96 µM	12.1 µM	–	–	2400 nM	10.1 µM	1570 nM	4.97 µM	5.06 µM	6.11 µM	2.32 µM	12.2 µM	12.7 µM	2.81 µM	12.8 µM	1700 nM	2.04 µM	2.32 µM
COCCOc1cnc2ccn([C@H](C)c3nnc4c(F)cc(-c5cnn(C)c5)cn34)c(=O)c2c1	–	–	> 100 µM	> 100 µM	34900 nM	> 100 µM	> 100000 nM	> 100 µM	54900 nM	> 100 µM	> 100 µM	> 100 µM	> 100 µM	> 100 µM	> 100 µM	> 100 µM	> 100 µM	> 100000 nM	33.1 µM	> 100 µM
COc1cc2c(cc1O)C1Cc3ccc(OC)c(O)c3C(C2)N1C (configuration not stated)	–	> 100 µM	–	> 100 µM	–	–	–	> 100 µM	–	> 100 µM	> 100 µM	> 100 µM	–	> 100 µM	> 100 µM	–	> 100 µM	–	–	–
